In US5527940A, “Methanediphosphonate derivative, its manufacturing process and its pharmaceutical applications” (Toray Industries, Inc., priority 1991, dated 1996):

Assays:
[1] = tested on: osteoclasts (mouse bone cells), resorption pit formation; test: Bone resorption pit formation by mouse bone cells (osteoclasts) on ivory, active type-vitamin D3 stimulation; assay type: cell-based, ICR mice; settings: 10 nM active type-vitamin D3, 4 days
Source text: The balance between bone formation and bone destruction is disturbed during osteoporosis, with bone destruction considered to be accelerated. Bone destruction is believed to occur due to an increase in the activation and number of osteoclasts. Experiments have been conducted wherein bone resorption was induced with active type-vitanium D3 stimulation using mouse bone cells dispersed on ivory for the experimental model. The bone resorption inhibitory action of compounds of the present invention was measured using this model.
After isolating the femur and tibia from 10-15 day old ICR mice, the bone specimens were prepared into thin sections in α-MEM medium containing 5% fetal bovine serum to prepare an bone cells suspension containing marrow cells and bone matrix. Large fragments of bone were removed with nylon mesh. Viable total cells were counted with trypan blue exclusion test while osteoclasts were stained with tartaric acid-resistantacid phosphatase stain to prepare a cell suspension containing osteoclasts in a proportion of roughly 0.05-0.1%. The ivory was cut into thin sections having a thickness of 150 μm using a low-speed rotary diamond cutter. The thin sections were then punched to a size that matched the size of the wells of a 96 well plate. These ivory fragments were placed in a 96 well plate followed by addition of the cell suspension prepared above so that each well contained 500 osteoclasts. 10 nM active type-vitamin D3 was added as stimulant simultaneous to addition of the drugs of the present invention at concentrations of 10 μM and 100 μM. After culturing the cells for 4 days at 37° C. in an environment of 10% CO2, the resorption pits that formed on the ivory slices were stained with hematoxylin and counted by observing microscopically. The resorption pit formation inhibition rate was then calculated using the formula indicated below. [formula]
The results were statistically processed using the Student's t-test, and those results that were significant at a level of significance of P<0.05 with respect to an active type-vatanium D3 stimulation control group were indicated with one asterisk (*), while those results that were significant at a level of significance of P<0.01 were indicated with two asterisks (**).

[2] = tested on: IL-1 production by J774-1 mouse macrophage cells; test: Action on IL-1 Production by Strain J774-1 Mouse Macrophage Cells (LPS stimulated); assay type: cell-based; settings: 100 μM compound, LPS 1 μg/ml, 24 hours, read-out: IL-1 Production Inhibition Rate with respect to Control Group
Protocol: It is also known that these cells produce IL-1 when stimulated with LPS. The inhibitory action on IL-1 production of compounds of the present invention was measured according to the following procedure using this cell line.
The J774-1 cells were cultured in RPMI-1640 medium containing 10% fetal bovine serum and 50 μM 2-mercaptoethanol followed by adjusting the number of cells to 2×10^5 cells/ml. 1 ml aliquots of this cell suspension were then placed in the wells of a 24 well plate and cultured for 30 minutes. Following culturing, LPS was added to a final concentration of 1 μg/ml. At the same time, compounds obtained in Examples were dissolved in sterilized distilled water and added at a concentration of 100 μM. […]
The samples obtained above were serially diluted by a factor of 2 in a 96 well multiplate at a capacity of 50 μl. […] The thymus cells were then cultured for 72 hours and IL-1 activity was determined from the growth rate of the cells. […] Using the absorbance of the pigment produced by this reduction at 570 nm as the index, the dilution factor of the sample when growth of thymus cells is induced by 50% was calculated in terms of the number of units of that sample by taking the case of induction of maximum growth of T cells by human gene recombinant IL-1 to be 100% growth, and growth in the case of not adding IL-1 to be 0%. […]

adjuvant arthritis model = test: Adjuvant Arthritis Test; assay type: in vivo, 7 week old female Lewis rats; settings: subcutaneous daily days 8-21
Protocol: Multiple arthritis resembling human chronic articular rheumatism occurs when tubercule bacillus adjuvant is injected into rats. The antiinflammatory, antirheumatic and bone metabolism improving action of compounds of the present invention were investigated according to the following procedure using this adjuvant arthritis model.
0.1 mg of dried non-viable Mycobacterium butyricum cells were suspended in 0.1 ml of liquid paraffin followed by injection into the skin of the left hind limb of 7 week old female Lewis rats. The compounds obtained in the Examples were dissolved in sterilized distilled water and administered subcutaneously every day for two weeks from the 8th to 21st days after injection of adjuvant. During that time, the volumes of the right and left hind limbs were measured and the swelling rate was calculated according to the following formula: [formula]
Moreover, the swelling inhibition rates were also determined according to the following formula, and those values are shown in Table 1. [formula]
Soft X-ray radiographs were taken of the left and right hind limbs of the animals following sacrifice on day 22. The degree of bone destruction at five locations in the left and right hind limbs was evaluated based on the soft X-ray radiographs scoring those results among 5 ranks. Moreover, the bone destruction inhibition rate was calculated using the following formula, and those values are shown in Table 1. [formula]
Those results that were significant at a level of significance of P<0.001 with respect to a control group administered only sterilized distilled water according to the Student's t-test and Chukey's multiple comparison method were indicated with three asterisks (***), those results that were significant at a level of significance of P<0.01 were indicated with two asterisks (**), and those significant at a level of significance of P<0.05 were indicated with one asterisk (*).
The swelling inhibition rates for Example 7 and Example 33 are the values for day 14 and day 21.

CSc1ccc(SC(P(=O)(O)O)P(=O)(O)O)cc1 [Example 2, (4-methylthiophenyl)thiomethanediphosphonic acid]
resorption pit formation Inhibition Rate with respect to Control Group ([1]; 10 μM compound): 79.9 ± 3.12% | resorption pit formation Inhibition Rate with respect to Control Group ([1]; 100 μM compound): 92.6 ± 1.08% | inhibition at 100 µM [2]: 51.4% | Bone Destruction Inhibition Rate with respect to control group, Day 22 (adjuvant arthritis model; Day 22, soft X-ray score of left and right hind limbs): 62.3% | Swelling Inhibition Rate with respect to Control Group, Day 16, Left (adjuvant arthritis model; left (adjuvant-injected) hind limb, Day 16): 96.0% | Swelling Inhibition Rate with respect to Control Group, Day 21, Left (adjuvant arthritis model; left (adjuvant-injected) hind limb, Day 21): 122.5% | Swelling Inhibition Rate with respect to Control Group, Day 16, Right (adjuvant arthritis model; right hind limb, Day 16): 9.1% | Swelling Inhibition Rate with respect to Control Group, Day 21, Right (adjuvant arthritis model; right hind limb, Day 21): 30.6%
